One compound from US20240294541A1, “COMPOUNDS CONSTITUTING C20-MODIFIED SALINOMYCIN DERIVATIVES, A METHOD FOR OBTAINING THE SAME, A COMPOSITION CONTAINING THE SAME AND A USE OF SAID COMPOUNDS” (FILECLO SPOLKA Z OGRANICZONA ODPOWIEDZIALNOSCIA, priority 2021, published 2024) can be followed below.

Assay type in all cases: cell-based
For assay [1], the system named is PLC/PRF/5 (human liver cancer). Kind of assay: cells. Conditions: Table 4.
Assay [2] concerns BALB/3T3 (normal mouse fibroblasts). Kind of assay: In vitro cytotoxicity, SRB assay, normal BALB/3T3 fibroblasts. Conditions: Table 4; BALB/3T3 normal mouse fibroblasts; read-out: IC50 (nM) BALB3T3 normal cells. (In general: The SRB assay estimates cell density from bound dye.)
For the next assay, the system named is cancer cells. Kind of assay: In vitro cytotoxic activity on the panel of cancer cell lines (MTT/SRB), general statements. The settings on record: Tables 3.1, 3.2, 4 and 5; parent compound salinomycin.
Assay [3] concerns MIA PaCa-2 (human pancreatic cancer). Kind of assay: cells. Conditions: Table 4.
For the next assay, the system named is Hs294T (human melanoma). Kind of assay: cells. Conditions: Table 4.
The test system of assay [4] is MV-4-11 (human biphenotypic leukaemia). Kind of assay: In vitro cytotoxicity, MTT assay, MV-4-11. For orientation: Tetrazolium dyes change colour on reduction, which living cells bring about.
Assay [5] relates to NCI-H358 (human lung cancer). Kind of assay: cells. The settings on record: Table 4.
For assay [6], the system named is A2780Cis (cisplatin-resistant human ovarian cancer). Kind of assay: In vitro cytotoxicity, SRB assay, A2780Cis.
The subject of assay [7] is SNU-16 (human gastric cancer). Kind of assay: cells. The settings on record: Table 4.
[8] abbreviates: selectivity coefficient vs normal BALB/3T3 fibroblasts.

On to `CC[C@@H](C(=O)[C@@H](C)[C@@H](O)[C@H](C)[C@@H]1O[C@@H]([C@@H](CC)C(=O)O)CC[C@@H]1C)[C@H]1O[C@]2(C=C[C@@H](NC(=O)C(=O)NCCc3ccccc3)[C@]3(CC[C@@](C)([C@H]4CC[C@](O)(CC)[C@H](C)O4)O3)O2)[C@H](C)C[C@@H]1C` [FLC-00457-1•Na], for which the IC50 in assay [1] (PLC/PRF/5 human liver cancer cells, read-out: IC50 (nM) PLC/PRF/5) was determined as 122 nM; in assay [2] it was 734 nM; in assay [3] (MIA PaCa-2 human pancreatic cancer cells, read-out: IC50 (nM) MIA PaCa-2) it was 53.7 nM; in the assay with Hs294T (human melanoma) (Hs 294T, Hs294T human melanoma cells, read-out: IC50 (nM) Hs294T), 2530 nM; in assay [4] (Homo sapiens, MV4-11, read-out: IC50 (nM) MV4-11) it was 18 nM; in assay [5] (NCI-H358 human lung cancer cells, read-out: IC50 (nM) NCI-H358), 446 nM. Moreover, the IC50 in assay [6] (Homo sapiens, A2780cis, read-out: IC50 (nM) A2780Cis) was 9.66 nM; in assay [7] (SNU-16 human gastric cancer cells, read-out: IC50 (nM) SNU-16), 551 nM. Also, in assay [1] (setting [8]), the “SI PLC/PRF/5” value was 6.0. In addition, the “anti-proliferative effect compared to that of the parent compound” value with cancer cells is on record as “several times more potent compared to that of the parent compound”. For the same compound, the “SI MIA PaCa-2” value in assay [3] (setting [8]) amounted to 13.7. In addition, the “SI Hs294T” value with Hs294T (human melanoma) (setting [8]) is 0.3. Also, the “SI MV4-11” value in assay [4] was determined as 40.7. For the same compound, the “SI NCI-H358” value in assay [5] (setting [8]) turned out to be 1.65. Also, the “SI A2780Cis” value in assay [6] is 76.0. The “SI SNU-16” value in [7] (setting [8]) is given as 1.3.
